Results on 24 compounds are retold here after patent publication US9273077B2, “Phosphorus derivatives as kinase inhibitors” (ARIAD Pharmaceuticals, Inc., priority 2008, dated 2016).

Some results are limits rather than exact numbers.

T1 sequence (Q9UM73 19-1620): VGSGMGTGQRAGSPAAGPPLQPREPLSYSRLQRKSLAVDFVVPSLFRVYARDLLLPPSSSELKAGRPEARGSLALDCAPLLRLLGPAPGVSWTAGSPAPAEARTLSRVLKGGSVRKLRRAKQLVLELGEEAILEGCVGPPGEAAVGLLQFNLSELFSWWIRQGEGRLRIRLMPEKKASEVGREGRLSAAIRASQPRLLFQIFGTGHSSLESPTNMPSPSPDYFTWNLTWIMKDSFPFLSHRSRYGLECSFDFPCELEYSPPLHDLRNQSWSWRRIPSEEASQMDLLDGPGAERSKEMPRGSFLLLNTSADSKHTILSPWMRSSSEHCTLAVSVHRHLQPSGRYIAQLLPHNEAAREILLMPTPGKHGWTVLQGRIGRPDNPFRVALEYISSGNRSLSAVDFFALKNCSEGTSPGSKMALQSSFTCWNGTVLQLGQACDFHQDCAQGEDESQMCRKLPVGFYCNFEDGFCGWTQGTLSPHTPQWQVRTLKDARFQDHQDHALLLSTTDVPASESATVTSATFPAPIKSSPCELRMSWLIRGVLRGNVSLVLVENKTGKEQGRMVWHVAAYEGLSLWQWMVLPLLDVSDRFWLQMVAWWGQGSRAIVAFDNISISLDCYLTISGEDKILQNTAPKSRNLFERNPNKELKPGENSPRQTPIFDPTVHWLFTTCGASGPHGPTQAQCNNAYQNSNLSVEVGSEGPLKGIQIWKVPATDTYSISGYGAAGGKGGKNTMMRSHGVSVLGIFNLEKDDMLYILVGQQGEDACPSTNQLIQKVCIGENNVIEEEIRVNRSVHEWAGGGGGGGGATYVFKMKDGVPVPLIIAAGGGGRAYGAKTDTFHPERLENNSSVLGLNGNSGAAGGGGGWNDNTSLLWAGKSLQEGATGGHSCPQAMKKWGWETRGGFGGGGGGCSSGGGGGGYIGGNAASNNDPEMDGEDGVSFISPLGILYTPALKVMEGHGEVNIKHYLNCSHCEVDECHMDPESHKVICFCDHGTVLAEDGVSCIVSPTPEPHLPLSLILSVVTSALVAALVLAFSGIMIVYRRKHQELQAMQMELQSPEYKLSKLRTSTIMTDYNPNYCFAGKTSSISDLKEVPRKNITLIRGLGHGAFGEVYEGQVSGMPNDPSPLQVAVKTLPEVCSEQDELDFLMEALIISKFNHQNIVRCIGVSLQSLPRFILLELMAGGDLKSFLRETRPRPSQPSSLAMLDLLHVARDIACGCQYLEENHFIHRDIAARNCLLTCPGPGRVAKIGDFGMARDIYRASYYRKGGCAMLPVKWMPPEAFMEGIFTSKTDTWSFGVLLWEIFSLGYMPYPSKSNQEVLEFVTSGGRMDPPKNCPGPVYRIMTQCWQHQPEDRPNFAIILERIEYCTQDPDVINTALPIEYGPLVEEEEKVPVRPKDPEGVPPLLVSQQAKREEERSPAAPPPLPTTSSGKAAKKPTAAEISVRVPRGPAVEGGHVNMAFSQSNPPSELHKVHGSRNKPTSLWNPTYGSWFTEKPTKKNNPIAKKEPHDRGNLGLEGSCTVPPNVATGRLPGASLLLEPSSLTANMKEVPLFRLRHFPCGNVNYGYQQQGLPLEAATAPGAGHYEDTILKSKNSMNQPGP

This assay concerns the target T1, ALK (Homo sapiens, UniProt Q9UM73).
T1 construct: Kinases are expressed as either kinase domains or full length constructs fused to glutathione S-transferase (GST) or polyHistidine tagged fusion proteins; made in house; host or cells: E. coli or Baculovirus-High Five (not specified which for ALK)
As to the kind of experiment: inhibitory potency against ALK (kinase inhibition assay). The class given is biochemical. The text has this:
More specifically, the compounds described herein are screened for kinase inhibition activity as follows. Kinases suitable for use in the following protocol include, but are not limited to: ALK, Jak2, b-Raf, c-Met, Tie-2, FLT3, Abl, Lck, Lyn, Src, Fyn, Syk, Zap-70, Itk, Tec, Btk, EGFR, ErbB2, Kdr, FLT1, Tek, InsR, and AKT.
Kinases are expressed as either kinase domains or full length constructs fused to glutathione S-transferase (GST) or polyHistidine tagged fusion proteins in either E. coli or Baculovirus-High Five expression systems. They are purified to near homogeneity by affinity chromatography as previously described (Lehr et al., 1996; Gish et al., 1995). In some instances, kinases are co-expressed or mixed with purified or partially purified regulatory polypeptides prior to measurement of activity.
Kinase activity and inhibition can be measured by established protocols (see e.g., Braunwalder et al., 1996). In such cases, the transfer of ^33PO4 from ATP to the synthetic substrates poly(Glu, Tyr) 4:1 or poly(Arg, Ser) 3:1 attached to the bioactive surface of microtiter plates is taken as a measure of enzyme activity. After an incubation period, the amount of phosphate transferred is measured by first washing the plate with 0.5% phosphoric acid, adding liquid scintillant, and then counting in a liquid scintillation detector. The IC50 is determined by the concentration of compound that causes a 50% reduction in the amount of ^33P incorporated onto the substrate bound to the plate.
For example, in one method, compounds can be tested for their ability to inhibit kinase activity of baculovirus-expressed ALK using a modification of the ELISA protocol reported for trkA in Angeles, T. S. et al., Anal. Biochem. 1996, 236, 49-55, which is incorporated herein by reference. Phosphorylation of the substrate, phopholipase C-gamma (PLC- ? ) generated as a fusion protein with glutathione-S-transferase (GST) as reported in rotin, D. et al., EMBO J. 1992, 11, 559-567, which is incorporated by reference, can be detected with europium-labeled anti-phosphotyrosine antibody and measured by time-resolved fluorescence (TRF). […] Detection of the phosphorylated product can be performed by adding 100 ? L/well of Eu-N1 labeled PT66 antibody (Perkim Elmer #AD0041). Incubation at 37 degrees C. then proceeds for one hour, followed by addition of 100 ? L enhancement solution (for example Wallac #1244-105). The plate is gently agitated and after thirty minutes, the fluorescence of the resulting solution can be measured (for example using EnVision 2100 (or 2102) multilabel plate reader from Perkin Elmer).
Data analysis can then be performed. IC50 values can be calculated by plotting percent inhibition versus log10 of concentration of compound.
The inhibition of ALK tyrosine kinase activity can also be measured using the recombinant kinase domain of the ALK in analogy to VEDG-R kinase assay described in J. Wood et al., Cancer Res 2000, 60, 2178-2189. In vitro enzyme assays using GST-ALK protein tyrosine kinase can be performed in 96-well plate as a filter binding assay in 20 mMTris.HCl, pH 7.5, 3 mM MgCl2, 10 mM MnCl2, […], 0.1 ? Ci/assay (=30 ? L) [ ? -^33P]-ATP, 2 ? M ATP, 3 ? g/mL poly (Glu, tyr 4:1) Poly-EY (sigma P-0275), 1% DMSO, 25 ng ALK enzyme. Assays can be incubated for 10 min, at ambient temperature. Reactions can be terminated by adding 50 ? L of 125 mM EDTA, and the reaction mixture can be transferred onto a MAIP Multiscreen plate (Millipore, Bedford, Mass.) previously wet with methanol, and rehydrated for 5 minutes with water. Following washing (0.5% H3PO4), plates can be counted in a liquid scintillation counter. IC50 values are calculated by linear regression analysis of the percentage inhibition.
Consider `CP(C)(=O)c1ccc(Nc2ncc(C(F)(F)F)c(NC34CC5CC(CC(C5)C3)C4)n2)cc1` [Example 2, N^2-[4-(dimethylphosphoryl)phenyl]-N′-(tricyclo[3.3.1.1^3,7]dec-1-yl)-5-(trifluoromethyl)pyrimidine-2,4-diamine], for which the IC50 (commonly the concentration that inhibits the measured activity by half) was above 10 nM. In the case of `CP(C)(=O)c1ccc(Nc2ncc(C(F)(F)F)c(NCCc3ccc(S(N)(=O)=O)cc3)n2)cc1` [Example 5, 4-(2-{[2-{[4-(dimethylphosphoryl)phenyl]amino}-5-(trifluoromethyl)pyrimidin-4-yl]amino}ethyl)benzenesulfonamide], the IC50 was above 10 nM.

In the case of `CP(C)(=O)c1ccc(Nc2ncc(C(F)(F)F)c(NC3CCCO3)n2)cc1` (stereo not drawn) [Example 6, N^2-[4-(dimethylphosphoryl)phenyl]-N^4-(tetrahydrofuran-2-yl)-5-(trifluoromethyl)pyrimidine-2,4-diamine], the IC50 was above 10 nM. To `CP(C)(=O)c1ccc(Nc2ncc(C(F)(F)F)c(NN3CC4CCCC4C3)n2)cc1` (stereo not drawn) [Example 7, N^2-[4-(dimethylphosphoryl)phenyl]-N^4-(hexahydrocyclopenta[c]pyrrol-2(1H)-yl)-5-(trifluoromethyl)pyrimidine-2,4-diamine] belongs above 10 nM; to `CP(C)(=O)c1ccc(Nc2ncc(C(F)(F)F)c(NN3CCOCC3)n2)cc1` [Example 8, N^2-[4-(dimethylphosphoryl)phenyl]-N^4-(morpholin-4-yl)-5-(trifluoromethyl)pyrimidine-2,4-diamine], above 10 nM; to `CP(C)(=O)c1ccc(Nc2ncc(C(F)(F)F)c(NCCc3c[nH]c4ccccc34)n2)cc1` [Example 10, N^2-[4-(dimethylphosphoryl)phenyl]-N^4-[2-(1H-indol-3-yl)ethyl]-5-(trifluoromethyl)pyrimidine-2,4-diamine], above 10 nM. `CN1CCN(Nc2nc(Nc3ccc(P(C)(C)=O)cc3)ncc2C(F)(F)F)CC1` [Example 11, N^2-[4(dimethylphosphoryl)phenyl]-N^4-(4-methylpiperazin-1-yl)-5-(trifluoromethyl) pyrimidine-2,4-diamine]: the IC50 is above 10 nM.

`CP(C)(=O)c1ccc(Nc2ncc(C(F)(F)F)c(NCC34CC5CC(CC(C5)C3)C4)n2)cc1` [Example 12, N^2-[4-(dimethylphosphoryl)phenyl]-N′-(tricyclo[3.3.1.1^3,7]dec-1-ylmethyl)-5-(trifluoromethyl)pyrimidine-2,4-diamine]: the IC50 was above 10 nM.

As to `CN1CCN(c2ccc(CNc3nc(Nc4ccc(P(C)(C)=O)cc4)ncc3C(F)(F)F)cc2)CC1` [Example 13, N^2-[4-(dimethylphosphoryl)phenyl]-N^4-[4-(4-methylpiperazin-1-yl)benzyl]-5-(trifluoromethyl)pyrimidine-2,4-diamine], the IC50 is above 10 nM. To `Cc1cc(C)cc(Nc2nc(Nc3ccc(P(C)(C)=O)cc3)ncc2C(F)(F)F)c1` [Example 14, N^4-(3,5-dimethylphenyl)-N^2-[4-(dimethylphosphoryl)phenyl]-5(trifluoromethyl)pyrimidine-2,4-diamine] belongs above 10 nM; to `COc1cc(P(C)(C)=O)ccc1Nc1ncc(Cl)c(Nc2ccccc2)n1` [Example 15, 5-chloro-N^2-[4-(dimethylphosphoryl)-2-methoxyphenyl]-N^4-phenylpyrimidine-2,4-diamine], above 10 nM; to `COc1cc(P(C)(C)=O)ccc1Nc1ncc(C(F)(F)F)c(Nc2ccccc2S(=O)(=O)C(C)C)n1` [Example 16, N^2-[4-(dimethylphosphoryl)-2-methoxyphenyl]-N^4-[2-(propan-2-ylsulfonyl)phenyl]-5-(trifluoromethyl)pyrimidine-2,4-diamine], 2 to 10 nM.

`COc1cc(P(C)(C)=O)ccc1Nc1ncc(Cl)c(Nc2ccccc2S(=O)(=O)C(C)C)n1` [Example 17, 5-chloro-N-[4-(dimethylphosphoryl)-2-methoxyphenyl]-N^4-[2-(propan-2-ylsulfonyl)phenyl]pyrimidine-2,4-diamine] returned an IC50 below 2 nM. Consider `CC(C)S(=O)(=O)c1ccccc1Nc1nc(Nc2ccc(P(C)(C)=O)cc2)ncc1Cl` [Example 18, 5-chloro-N^2-[4-(dimethylphosphoryl)phenyl]-N^4-[2-(propan-2-ylsulfonyl)phenyl]pyrimidine-2,4-diamine], for which the IC50 lay in the range of 2 to 10 nM.

With `COc1cc(N2CCC(N3CCN(C)CC3)CC2)ccc1Nc1ncc(Cl)c(Nc2ccc(P(C)(C)=O)cc2)n1` [Example 19, 5-chloro-N^4-[4-(dimethylphosphoryl)phenyl]-N^2-{2-methoxy-4-[4-(4-methylpiperazin-1-yl)piperidin-1-yl]phenyl}pyrimidine-2,4-diamine], the IC50 is above 10 nM. To `COc1cc(P(C)(C)=O)ccc1Nc1nccc(Nc2ccccc2S(=O)(=O)C(C)C)n1` [Example 20, N^2-[4-(dimethylphosphoryl)-2-methoxyphenyl]-N^4-[2-(propan-2-ylsulfonyl)phenyl]pyrimidine-2,4-diamine] belongs above 10 nM; to `COc1cc(P(C)(C)=O)ccc1Nc1ncc(C)c(Nc2ccccc2S(=O)(=O)C(C)C)n1` [Example 21, N^2-[4-(Dimethylphosphoryl)-2-methoxyphenyl]-5-methyl-N^4-[2-(propan-2-ylsulfonyl)phenyl]pyrimidine-2,4-diamine], 2 to 10 nM. To `COc1ccc(P(C)(C)=O)cc1Nc1ncc(Cl)c(Nc2ccccc2S(=O)(=O)C(C)C)n1` [Example 22, 5-Chloro-N^2-[5-(dimethylphosphoryl)-2-methoxyphenyl]-N^4-[2-(propan-2-ylsulfonyl)phenyl]pyrimidine-2,4-diamine] belongs 2 to 10 nM. The value for `Cc1cc(P(C)(C)=O)ccc1Nc1ncc(Cl)c(Nc2ccccc2S(=O)(=O)C(C)C)n1` [Example 23, 5-Chloro-N^2-[4-(dimethylphosphoryl)-2-methylphenyl]-N-[2-(propan-2-ylsulfonyl)phenyl]pyrimidine-2,4-diamine] was below 2 nM; that for `CCc1cc(P(C)(C)=O)ccc1Nc1ncc(Cl)c(Nc2ccccc2S(=O)(=O)C(C)C)n1` [Example 24, 5-Chloro-N^2-[4-(dimethylphosphoryl)-2-ethylphenyl]-N^4-[2-(propan-2-ylsulfonyl)phenyl]pyrimidine-2,4-diamine] was below 2 nM; that for `CC(C)S(=O)(=O)c1ccccc1Nc1nc(Nc2ccc(P(C)(C)=O)cc2OC(F)(F)F)ncc1Cl` [Example 25, 5-Chloro-N^2-[4-(dimethylphosphoryl)-2-(trifluoromethoxy)phenyl]-N^4-[2-(propan-2-ylsulfonyl)phenyl]pyrimidine-2,4-diamine] was below 2 nM. Compound `CC(C)S(=O)(=O)c1ccccc1Nc1nc(Nc2ccc(P(C)(C)=O)cc2Cl)ncc1Cl` [Example 26, 5-Chloro-N^2-[2-chloro-4-(dimethylphosphoryl)phenyl]-N^4-[2-(propan-2-ylsulfonyl)phenyl]pyrimidine-2,4-diamine] showed an IC50 below 2 nM. Regarding `CC(C)S(=O)(=O)c1ccccc1Nc1nc(Nc2ccc(P(C)(C)=O)cc2F)ncc1Cl` [Example 27, 5-Chloro-N^2-[4-(dimethylphosphoryl)-2-fluorophenyl]-N^4-[2-(propan-2-ylsulfonyl)phenyl]pyrimidine-2,4-diamine], the IC50 lay in the range of 2 to 10 nM.

As for `COc1cc(P(C)(C)=O)ccc1Nc1ncc(N)c(Nc2ccccc2S(=O)(=O)C(C)C)n1` [Example 28, N^2-[4-(dimethylphosphoryl)-2-methoxyphenyl]-N^4-[2-(propan-2-ylsulfonyl)phenyl]pyrimidine-2,4,5-triamine], the IC50 was above 10 nM.
